Experimental data taken from US11992010B2, “Use of 4-(phenylethynyl) benzoic acid” (China Jiliang University, priority 2022, dated 2024).

Key:
[1] = test system: Arabidopsis seeds; assay: Seed germination experiment on Arabidopsis; assay type: in vivo, Arabidopsis thaliana L. Columbia, Col-0 ecotype; conditions: for Germination potential/% (48 h): control 45.31 ± 6.63; for Ultimate germination rate/%: control 88.32 ± 1.15
Description: (§1) The seeds of Arabidopsis wild type (Arabidopsis thaliana L. Columbia, Col-0 ecotype) were provided by the lab of plant quality & safety biology in China Jiliang university. The commercial tomato seeds (Solanum lycopersicum CV. Zhefen 202) were provided by Zhejiang Academy of Agricultural Sciences.
(§2) The 4-(Phenylethynyl) benzoic acid solutions were prepared as follows: 22.9 mg 4-(Phenylethynyl) benzoic acid was weighted and dissolved in 1 mL DMSO to make the 100 mM 4-(Phenylethynyl) benzoic acid mother solution. The working solutions applied were prepared by diluting the 4-(phenylethynyl) benzoic acid mother solution with water. For example, the 4-(Phenylethynyl) benzoic acid treatment solutions at the concentrations of 1 μM, 10 μM, and 50 μM were prepared by diluting 1 μL of the 100 mM 4-(phenylethynyl) benzoic acid mother solution to 100 mL, 10 mL, or 2 mL with water. DMSO was supplemented to a final concentration of 0.05% (V:V).
(§3) 0.05% DMSO water solution then used as a control solution.
Arabidopsis seeds were soaked in 4-(Phenylethynyl) benzoic acid treatment solutions at the concentrations of 1 μM, 10 μM, and 50 μM for 3 days under dark at 4° C., respectively. Seeds soaked in the 0.05% DMSO water solution were used as control. On the fourth day, Seeds were transformed to light at 25° C. in 2-cm-diameter Petri dishes with two layers of filter papers. Different concentrations of 4-(Phenylethynyl) benzoic acid treatment solutions were added as germination liquids. 0.05% DMSO water solution was used as control. 30-50 seeds were placed on the moist filter paper in a Petri dish. There were three replicates for each treatment. After germination for 30 h, 42 h, 48 h, and 66 h in a growth chamber (25° C.), the germination rate (the proportion of the total number of the seeds germinated corresponding to each time point after the start of the germination experiment to the total number of seeds to be tested) was calculated, respectively. The germination rate at 48 h was adopted as the germination potential (the proportion of the total number of the seeds germinated corresponding to 48 h after the start of the germination experiment to the total number of seeds to be tested).

[2] = test system: tomato seeds; assay: Seed germination experiment on tomato; assay type: in vivo, Solanum lycopersicum CV. Zhefen 202; conditions: 50 μM
Description: as §1, §2, §3
For tomato, 80 seeds were sowed on two layers of filter papers in a 6-cm-diameter Petri dish with germination liquids. 4-(Phenylethynyl) benzoic acid treatment solution at the concentration of 50 μM and 0.05% DMSO water solution (Control) were used as the germination liquids. There were three replicates for each treatment. After germination for 24 h, 36 h, 48 h, 60 h, 72 h, 84 h in a growth chamber (25° C.), the germination rate (the proportion of the total number of the seeds germinated corresponding to each time point after the start of the germination experiment to the total number of seeds to be tested) was calculated, respectively. The germination rate at 48 h was adopted as the germination potential (the proportion of the total number of the seeds germinated corresponding to 48 h after the start of the germination experiment to the total number of seeds to be tested).

[3] = test system: rice radicle; assay: Rice radicle elongation; assay type: in vivo, Oryza sativa L. Datian Nip
Description: Rice cultivar (Oryza sativa L. Datian Nip) was provided by Zhejiang Academy of Agricultural Sciences.
Every 1 μL 4-(Phenylethynyl) benzoic acid mother solution in Example 1 was diluted with water to 2 mL or 500 μL to prepare 50 μM or 200 μM 4-(Phenylethynyl) benzoic acid treatment solutions. 0.05% DMSO water solution was used as the control solution for 50 μM 4-(Phenylethynyl) benzoic acid treatment solution and 0.2% DMSO water solution was used as the control solution for 200 μM 4-(Phenylethynyl) benzoic acid treatment solution respectively.
A volume of 10 ml 4-(Phenylethynyl) benzoic acid treatment solutions at various concentrations were added to 9-cm-diameter Petri dishes with two layers of filter papers. 100 seeds were placed on the moist filter paper in a Petri dish. 0.05% DMSO water solution was used as control for 50 μM 4-(Phenylethynyl) benzoic acid treatment solution. 0.2% DMSO water solution was used as control for 200 μM 4-(Phenylethynyl) benzoic acid treatment solution. There were three replicates for each treatment. Seeds were germinated under light at 28° C. The seeds that germinated between the second and the third day after imbibition were chosen and their radicle length were measured on the fifth day.

[4] = test system: stomata of tomato leaves; assay: Stomata closure in abaxial epidermal strips of tomato; assay type: cell-based, Solanum lycopersicum CV. Zhefen 202; conditions: 50 μM, 3 hours, compared to the control
Description: The commercial tomato seeds (Solanum lycopersicum CV. Zhefen 202) were provided by Zhejiang Academy of Agricultural Sciences.
The concentration of 4-(Phenylethynyl) benzoic acid used in this example was 50 μM. Every 1 μL of the 100 mM 4-(Phenylethynyl) benzoic acid mother solution in Example 1 was diluted to 2 mL with MES-KCl buffer (10 mM MES, 50 mM KCl, pH 6.15). 0.5% Tween-80 (V:V) was added to increase the solubility and stability of 4-(Phenylethynyl) benzoic acid. The solution was mixed evenly by stirring efficiently and it was ensured that no 4-(phenylethynyl) benzoic acid was precipitated, and finally 50 μM 4-(phenylethynyl) benzoic acid was prepared.
The control solution was the MES-KCl buffer containing 0.05% DMSO and 0.5% Tween-80.
Abaxial epidermal strips of tomato were firstly peeled from washed leaves, then immersed in MES-KCl buffer (10 mM MES, 50 mM KCl, pH 6.15) under light at 28° C. to induce stomatal opening. After 2 hours, abaxial epidermal strips of tomato were treated with the control solution (MES-KCl buffer with 0.05% DMSO and 0.5% Tween-80) and 50 μM 4-(Phenylethynyl) benzoic acid treatment solution (MES-KCl buffer with 50 μM 4-(Phenylethynyl) benzoic acid, 0.05% DMSO and 0.5% Tween-80) for 3 hours, respectively. […] Widths and lengths of stomata were measured and the aperture ratios (width:length) were calculated. […]

Question: With O=C(O)c1ccc(C#Cc2ccccc2)cc1 [4-(Phenylethynyl) benzoic acid] as the compound, how does the “germination of Arabidopsis seeds (in words)” value ([1]; 10 μM and 50 μM, 50 μM exhibited a stronger effect) read?
Answer: The value was “significantly slowed down the germination”.

Question: And the “Germination potential/% (48 h)” value ([1]; Arabidopsis, 1 μM)?
Answer: The value was 37.50 ± 7.50 a %.

Question: What about the Ultimate germination rate/% ([1]; Arabidopsis, 1 μM) of the same compound?
Answer: Its Ultimate germination rate/% is 92.33 ± 0.29 a %.

Question: And the “decrease in germination potential” value ([1]; Arabidopsis, 10 μM)?
Answer: The value was > 20%.

Question: And the “Germination potential/% (48 h)” value ([1]; Arabidopsis, 10 μM)?
Answer: The value was 14.53 ± 6.40 b %.

Question: And the Ultimate germination rate/% ([1]; Arabidopsis, 10 μM)?
Answer: The Ultimate germination rate/% was 85.24 ± 7.41 a %.

Question: And the “germination rate reduction ultimately” value ([1]; Arabidopsis, 50 μM)?
Answer: Its value is > 80%.

Question: What about the Ultimate germination rate/% ([1]; Arabidopsis, 50 μM) of the same compound?
Answer: The Ultimate germination rate/% was 2.30 ± 3.98 b %.

Question: And the “tomato seeds germination (in words)” value ([2]; compared to the control)?
Answer: Its value is “significantly inhibited the germination process and reduced the germination rate”.

Question: What about the “Germination potential/% (48 h)” value ([2]; Tomato, 48 h, control 20.83 ± 1.90) of the same compound?
Answer: The value was 0.00 ± 0.00 b %.

Question: What about the Ultimate germination rate/% ([2]; Tomato, control 88.75 ± 6.25) of the same compound?
Answer: Its Ultimate germination rate/% is 10.41 ± 2.88 b %.

Question: And the “rice radicle elongation (in words)” value ([3]; 50 μM and 200 μM, relative to their controls, 200 μM significantly better than 50 μM)?
Answer: The value was “significantly inhibited rice radicle elongation”.

Question: And the activity at 50 µM ([3]; Oryza sativa, rice, 50 μM, control 0.05% DMSO, read-out: radicle length, % of control treatment)?
Answer: The activity at 50 µM was 48.2%.

Question: What about the activity at 200 µM ([3]; Oryza sativa, rice, 200 μM, control 0.2% DMSO, read-out: radicle length, % of control treatment) of the same compound?
Answer: Its activity at 200 µM is 20.3%.

Question: What about the “aperture ratio (width:length) (in words)” value [4] of the same compound?
Answer: The value was “significantly reduced”.

Question: And the “stomata aperture (in words)” value [4]?
Answer: The value was “significantly reduced”.
